Here are results for 38 molecules from PubChem BioAssay AID1648 (Sanford-Burnham Center for Chemical Genomics, 2009).

The source made the active and inactive calls. No rule for the calls is given here. Some results are limits rather than exact numbers.

In this test the target is Serine/threonine-protein kinase mTOR (Homo sapiens) (UniProt P42345). The test is described as follows: mTOR FRB domain ligand binding – biophysical, NMR (AID 1648). Conditions: NMR binding to FRB domain, chemical shift.
Sequence of Serine/threonine-protein kinase mTOR (Homo sapiens) (P42345 2015-2114): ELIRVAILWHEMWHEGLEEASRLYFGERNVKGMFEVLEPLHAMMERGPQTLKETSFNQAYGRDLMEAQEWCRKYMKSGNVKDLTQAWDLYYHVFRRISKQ
As usually defined, the Kd is the equilibrium constant for the complex coming apart. `OCc1ccccc1O[C@@H]1O[C@H](CO)[C@@H](O)[C@H](O)[C@H]1O`: the Kd was > 4 mM (inactive).

Turning to `CN1C(=O)/C(=C/c2ccccc2O)NC1=S`, the Kd is > 4 mM (inactive).

Take `Cc1nc2ccc(NC(=O)N3CCSCC3)cc2s1`: the Kd was > 4 mM (inactive).

Take `Cn1cnc2c(cnn2-c2ccccc2)c1=O`: the Kd is > 4 mM (inactive).

Turning to `COC(=O)C1=C(C)N(c2cccc(C(C)=O)c2)C(=O)C1`, the Kd is > 4 mM (inactive).

As for `O=C(O)C1=C[C@@H](O)[C@@H](O)[C@H](O)C1`, the Kd was > 4 mM (inactive).

Consider `COc1ccc(CN2CCC(O)CC2)c(O)c1`, for which the Kd is > 4 mM (inactive).

For `NC(=O)C1CCN(C(=O)c2ccco2)CC1`, the Kd is > 4 mM (inactive).

With `CCOC(=O)c1c[nH]c2c(F)cccc2c1=O`, the Kd was > 4 mM (inactive).

For the molecule `O=C(NC1CCS(=O)(=O)C1)c1ccccc1` (stereo not drawn), the Kd is > 4 mM (inactive).

Turning to `COc1c(CC=C(C)C)c2c(c3oc(=O)c(-c4ccc(O)cc4)c(O)c13)C=CC(C)(C)O2`, the Kd is > 4 mM (inactive).

As for `Cn1cnc2ccc([N+](=O)[O-])cc2c1=O`, the Kd is > 4 mM (inactive).

`CCC(=O)Nc1ccccc1NC(C)=O`: the Kd was > 4 mM (inactive).

For `O=C(c1ccc2c(c1)OCO2)N1CCC2(CC1)OCCO2`, the Kd was > 4 mM (inactive).

As to `CC(C)NC(=S)N1CCN(S(C)(=O)=O)CC1`, the Kd is > 4 mM (inactive).

Consider `NC(=O)c1cn(-c2ccccc2)nc1-c1cccnc1`, for which the Kd is > 4 mM (inactive).

Consider `COc1ccc2nc(N)sc2n1`, for which the Kd is > 4 mM (inactive).

Consider `O=C(O)c1ccc2sccc2c1`, for which the Kd was > 4 mM (inactive).

Consider `O=C(O)CCCCC1SCC2NC(=O)NC21` (stereo not drawn), for which the Kd is > 4 mM (inactive).

As to `CC(C)(C)C(=O)N1CCCC1C(=O)O` (stereo not drawn), the Kd was > 4 mM (inactive).

With `Cc1nc2c(=O)[nH]c3ccccc3c2o1`, the Kd is > 4 mM (inactive).

`O=S(=O)(Nc1cccc2cn[nH]c12)c1ccc(F)cc1`: the Kd was > 4 mM (inactive).

On to `Cc1c(C(=O)Nc2ccccn2)oc2ccccc12`, for which the Kd was > 4 mM (inactive).

For `O=S(=O)(N1CCOCC1)n1nnc2ccccc21`, the Kd was > 4 mM (inactive).

Turning to `O=S(=O)(NCc1ccco1)N1CCOCC1`, the Kd was > 4 mM (inactive).

As to `O=C(c1ccccc1-c1ccccc1)N1CCOCC1`, the Kd was > 4 mM (inactive).

In the case of `C[C@H]1OC(O[C@H]2[C@@H](O)CC(O[C@H]3[C@@H](O)C[C@H](O[C@H]4CC[C@]5(C)C6CC[C@]7(C)[C@@H](C8=CC(=O)OC8)[C@@H](O)C[C@]7(O)[C@@H]6CC[C@@H]5C4)O[C@@H]3C)O[C@@H]2C)C[C@H](O)C1O` (stereo partly drawn), the Kd is > 4 mM (inactive).

For `O=C1NC(=O)/C(=C\c2ccco2)S1`, the Kd is > 4 mM (inactive).

As to `COC(=O)c1scc(S(C)(=O)=O)c1-n1cccc1`, the Kd is > 4 mM (inactive).

In the case of `O=C(O)Cn1cc(C(=O)c2cccs2)c2ccccc21`, the Kd was > 4 mM (inactive).

For `CN(C)c1ccc(N2C(=O)CCC2=O)cc1`, the Kd was > 4 mM (inactive).

Consider `CC1(C)C2C[C@@H](O)[C@]3(C)C(CC[C@@]4(C)[C@H](c5ccoc5)OC(=O)[C@H]5O[C@]543)[C@@]2(C)[C@@H](O)C[C@H]1O` (stereo partly drawn), for which the Kd was > 4 mM (inactive).

For `COc1ccccc1CNc1nc2nc(C)cc(=O)n2[nH]1`, the Kd is > 4 mM (inactive).

On to `COc1ccc2nc(SCC(N)=O)[nH]c2c1`, for which the Kd was > 4 mM (inactive).

For `Cc1ccc2nc(SCCC#N)nc(C)c2c1`, the Kd is > 4 mM (inactive).

As for `CCOC(=O)C1CCN(c2ccc(C#N)cc2)CC1`, the Kd was > 4 mM (inactive).

Regarding `NC(=O)CSc1nc2ccccc2c(=O)[nH]1`, the Kd is > 4 mM (inactive).

For the molecule `Cn1cnc([N+](=O)[O-])c1Sc1ncnc2nc[nH]c12`, the Kd is > 4 mM (inactive).
